How the values were obtained:
[1] = tested on: TMN neurons (eIPSCs and sIPSCs); assay: Spontaneous and evoked IPSCs in TMN neurons in brain slices; type: cell-based, rat
Description: (§1) Recordings from histaminergic neurons in male Wistar rat (22–26 day old) or 30–60 day old mouse (SV129, histidine decarboxylase deficient HDC−/− or their wild type littermates) hypothalamic slices were performed as previously described. Slices were obtained between 9 and 11 a.m. In the beginning of whole-cell voltage clamp recordings TMN neurons were identified with the help of DIC microscopy and electrophysiological criteria as previously described. Inhibitory postsynaptic currents (IPSCs) were evoked by local stimulation through a bipolar stainless-steel stimulating electrode (50 µm; WPI, UK). The stimulation of axonal endings coming to TMN from ventrolateral preoptic area (VLPO) was done as described in [22]. […] Individual neurons were separated by vibrodissociation after brief preincubation with papain from the hypothalamic slices of mice or rats and identified as TMN neurons according to their size and shape. Identification was confirmed post hoc with the single-cell RT-PCR (all data presented in the manuscript were obtained from histidine decarboxylase-expressing neurons), [40]. TMN neurons from HDC−/− mice were identified by the expression of peripherin [16]. Whole-cell voltage-clamp recordings from isolated neurons were done with an EPC-9 amplifier and TIDA for Windows (HEKA, Lambrecht, Germany) at room temperature. Membrane potentials were not corrected for liquid junction potential (5.6 mV, calculated with LJPCalc, Barry, 1994). The intracellular solution was composed of (in mM) 140 KCl, 2 MgCl2, 0.5 CaCl2, 5 EGTA, 2 ATP and 10 HEPES (pH 7.2 adjusted with NaOH). A fast perfusion technique was used for application of ligands and modulators of fast ionotropic receptors, [41]. […] EC50 is the ligand concentration producing a half-maximal response, [ligand] is ligand concentration, and n is the Hill slope. Hill coefficients were obtained from the slope of the log/log plot of the dose-response curves. […] Steady-state amplitudes of the responses were used for the construction of dose-response plots if not mentioned otherwise.

[2] = tested on: native GABAA receptors; assay: GABA-evoked whole-cell currents in acutely isolated TMN neurons (wild type); type: cell-based, mouse
Description: as §1

[3] = tested on: GABAA receptors of HDC−/− TMN neurons; assay: GABA-evoked whole-cell currents in TMN neurons from HDC−/− mice; type: cell-based, mouse; settings: read-out: IC50 of inhibition of maximal GABA (0.5 mM) responses; adult HDC−/− mice, n = 5
Description: as §1

[4] = tested on: NMDA receptors; assay: NMDA-evoked currents in isolated neurons; type: cell-based
Description: Recordings from histaminergic neurons in male Wistar rat (22–26 day old) or 30–60 day old mouse (SV129, histidine decarboxylase deficient HDC−/− or their wild type littermates) hypothalamic slices were performed as previously described. Slices were obtained between 9 and 11 a.m. In the beginning of whole-cell voltage clamp recordings TMN neurons were identified with the help of DIC microscopy and electrophysiological criteria as previously described. Inhibitory postsynaptic currents (IPSCs) were evoked by local stimulation through a bipolar stainless-steel stimulating electrode (50 µm; WPI, UK). The stimulation of axonal endings coming to TMN from ventrolateral preoptic area (VLPO) was done as described in [22]. Visual identification of histaminergic neurons recorded in cell-attached configuration (see [16]) was confirmed by the significant reduction of firing rate by the histamine 3 (H3) receptor agonist R-α-methylhistamine (0.2 µM), which was performed at the end of each experiment. Individual neurons were separated by vibrodissociation after brief preincubation with papain from the hypothalamic slices of mice or rats and identified as TMN neurons according to their size and shape. Identification was confirmed post hoc with the single-cell RT-PCR (all data presented in the manuscript were obtained from histidine decarboxylase-expressing neurons), [40]. TMN neurons from HDC−/− mice were identified by the expression of peripherin [16]. Whole-cell voltage-clamp recordings from isolated neurons were done with an EPC-9 amplifier and TIDA for Windows (HEKA, Lambrecht, Germany) at room temperature. Membrane potentials were not corrected for liquid junction potential (5.6 mV, calculated with LJPCalc, Barry, 1994). The intracellular solution was composed of (in mM) 140 KCl, 2 MgCl2, 0.5 CaCl2, 5 EGTA, 2 ATP and 10 HEPES (pH 7.2 adjusted with NaOH). A fast perfusion technique was used for application of ligands and modulators of fast ionotropic receptors, [41]. […] EC50 is the ligand concentration producing a half-maximal response, [ligand] is ligand concentration, and n is the Hill slope. Hill coefficients were obtained from the slope of the log/log plot of the dose-response curves. […] Steady-state amplitudes of the responses were used for the construction of dose-response plots if not mentioned otherwise.
For the testing of UDCA action at NMDA receptors a maximal 0.2 mM concentration of agonist was used. Recordings were done in Mg^2+ -free solution in the presence of 10 µM of glycine. NMDA-currents were abolished by the NMDA receptor antagonist D-AP5 (100 µM).

[5] = target: T1, β3 homopentameric GABAA receptors (Homo sapiens, UniProt P28472); assay: Block of spontaneous openings of β3 homopentameric receptors (outward shift of baseline current); type: cell-based
T1 construct: expressed in transfected cells; host or cells: HEK293
Description: (§2) HEK 293 cells were obtained from DSM (Deutsche Sammlung von Mikroorganismen und Zellkulturen GmbH, DSM, Braunschweig). They were grown and maintained according to published standard protocols. Briefly, cells were grown in minimal essential medium supplemented with 10% fetal bovine serum, 100units/ml penicillin and streptomycin and 2 mM L-glutamine and splitted once per week. Semiconfluent cells were transfected on the third day after splitting with the help of Lipofectamine 2000 (Invitrogen), recordings were done 48–72 hrs after transfection.
(§3) The GABAAR subunit cDNAs, generously donated by G.Gisselmann (rat α1, mouse γ2L, rat β1, β2 and human β3 [26]) and J.H. Steinbach (rat α1V256S [28] and rat α1Q241L [44]), were subcloned into pcDNA3 (Invitrogen, Karlsruhe, Germany) and applied in a ratio 1∶1∶1 for the α1βxγ2L receptor and 1∶1 for α1β3 or β3γ2L receptors. […] For each receptor type patch clamp recordings were obtained from at least three separate transfections. Whole-cell patch clamp recordings were done in a similar extracellular solution as for the native cells (see above) except that the concentration of MgCl2 was reduced to 1.2 mM. Intracellular electrodes contained 140 mM CsCl (instead of KCl), pH adjusted with CsOH. The voltage was held at −40 mV.

[6] = target: T2, α1Q241L mutant α1β2γ2L GABAA receptors (UniProt P22723+P62813+P63138, Q268L); assay: Patch-clamp of mutant α1Q241L-containing α1β2γ2L GABAAR in HEK293 cells; type: cell-based, rat α1Q241L, rat β2, mouse γ2L; settings: UDCA 100 µM, 500 µM GABA, n = 5
T2 construct: expressed in transfected cells; host or cells: HEK293
Description: as §2, §3

[7] = parameters: method as in PMID 12236487, PMID 15349909; settings: after several month of UDCA therapy (up to 35 mg/kg); cited from earlier work

T1 sequence (P28472 26-473): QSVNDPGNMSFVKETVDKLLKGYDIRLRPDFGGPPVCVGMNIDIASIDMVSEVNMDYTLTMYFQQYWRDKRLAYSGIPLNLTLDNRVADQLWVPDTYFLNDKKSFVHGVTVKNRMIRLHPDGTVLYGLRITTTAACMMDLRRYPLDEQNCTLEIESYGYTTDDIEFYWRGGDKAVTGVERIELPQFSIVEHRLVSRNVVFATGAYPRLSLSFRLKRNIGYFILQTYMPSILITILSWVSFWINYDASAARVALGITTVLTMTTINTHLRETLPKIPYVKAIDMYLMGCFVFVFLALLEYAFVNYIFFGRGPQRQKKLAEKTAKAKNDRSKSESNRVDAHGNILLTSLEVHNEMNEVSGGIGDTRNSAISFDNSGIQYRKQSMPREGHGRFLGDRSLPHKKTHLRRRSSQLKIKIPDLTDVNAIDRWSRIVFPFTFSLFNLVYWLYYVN
T2 sequence (P62813 28-455 Q268L): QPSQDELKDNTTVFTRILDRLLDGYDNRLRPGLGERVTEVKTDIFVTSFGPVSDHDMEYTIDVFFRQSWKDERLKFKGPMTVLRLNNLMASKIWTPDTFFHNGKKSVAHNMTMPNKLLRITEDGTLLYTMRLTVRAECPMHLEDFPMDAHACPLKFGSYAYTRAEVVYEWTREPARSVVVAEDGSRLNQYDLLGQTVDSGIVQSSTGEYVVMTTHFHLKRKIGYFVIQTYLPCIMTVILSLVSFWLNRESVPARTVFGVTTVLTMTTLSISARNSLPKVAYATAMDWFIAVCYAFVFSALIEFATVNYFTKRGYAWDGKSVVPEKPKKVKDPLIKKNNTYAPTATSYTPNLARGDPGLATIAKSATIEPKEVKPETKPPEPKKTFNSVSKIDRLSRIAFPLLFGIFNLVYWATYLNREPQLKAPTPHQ
T2 sequence (P63138 25-474 limits assumed): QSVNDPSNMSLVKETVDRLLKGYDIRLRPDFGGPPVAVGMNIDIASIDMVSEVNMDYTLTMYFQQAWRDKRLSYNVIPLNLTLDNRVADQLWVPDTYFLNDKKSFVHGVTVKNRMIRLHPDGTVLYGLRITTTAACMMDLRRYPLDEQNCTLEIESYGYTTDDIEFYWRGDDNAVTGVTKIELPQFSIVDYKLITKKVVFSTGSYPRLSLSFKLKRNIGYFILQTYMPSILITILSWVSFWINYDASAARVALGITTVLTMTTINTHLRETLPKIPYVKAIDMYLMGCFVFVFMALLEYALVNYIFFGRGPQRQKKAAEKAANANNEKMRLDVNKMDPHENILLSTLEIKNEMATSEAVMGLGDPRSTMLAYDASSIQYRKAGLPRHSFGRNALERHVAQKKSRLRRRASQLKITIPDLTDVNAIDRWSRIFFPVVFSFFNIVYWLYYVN
T2 sequence (P22723 39-474): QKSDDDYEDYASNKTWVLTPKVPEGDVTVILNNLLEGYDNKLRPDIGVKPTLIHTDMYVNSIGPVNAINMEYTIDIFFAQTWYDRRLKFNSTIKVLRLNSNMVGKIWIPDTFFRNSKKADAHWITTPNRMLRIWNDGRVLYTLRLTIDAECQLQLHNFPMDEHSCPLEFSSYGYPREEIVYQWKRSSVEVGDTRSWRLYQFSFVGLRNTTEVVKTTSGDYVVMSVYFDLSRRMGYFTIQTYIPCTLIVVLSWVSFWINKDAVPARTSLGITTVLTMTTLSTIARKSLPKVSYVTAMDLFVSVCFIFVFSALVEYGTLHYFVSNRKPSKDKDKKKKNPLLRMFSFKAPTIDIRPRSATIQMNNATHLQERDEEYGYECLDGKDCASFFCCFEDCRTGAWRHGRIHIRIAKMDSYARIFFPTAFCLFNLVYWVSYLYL

For `C[C@H](CCC(=O)O)[C@H]1CC[C@H]2[C@@H]3[C@@H](O)C[C@@H]4C[C@H](O)CC[C@]4(C)[C@H]3CC[C@]12C` [UDCA, ursodeoxycholic acid], which “effect on eIPSCs and sIPSCs” value ([1]; 30 µM) is on record?
Its value is “ineffective”.

And the “amplitude of eIPSCs and sIPSCs” value ([1]; 100 µM)?
The value was “significantly inhibited the amplitude of eIPSCs and sIPSCs in less than half of the neurons”.

What about the “amplitude and decay time of eIPSCs and sIPSCs” value ([1]; 300 µM, all investigated neurons) of the same compound?
Its value is “significant reductions”.

And the “deactivation time constant (τoff)” value [2]?
Its value is “prolonged”.

And the “peak current amplitude of maximal GABA-mediated whole-cell currents” value [2]?
Its value is “not affected”.

What about the “use dependence of block of GABA currents” value [2] of the same compound?
Its value is “not use dependent”.

What about the “reversibility of block of GABA currents” value ([2]; GABA 10 µM, 1 s) of the same compound?
The value was “fully reversible”.

And the “concentration at which inhibition of GABA-evoked currents and sIPSCs starts” value ([2]; acutely isolated histaminergic neurons)?
Its value is 10 µM.

What about the “macroscopic apparent desensitization of responses to saturating GABA” value ([2]; decrease of fast decay time constant and steady-state/peak ratio) of the same compound?
The value was “concentration-dependently enhanced”.

What about the IC50 ([2]; native receptors, steady-state currents, read-out: IC50 of inhibition of GABA-evoked currents) of the same compound?
Its IC50 is 92 µM.

And the IC50 [3]?
Its IC50 is 90 ± 5 µM.

What about the “concentration above which block of NMDA receptors starts” value [4] of the same compound?
Its value is “higher than 100 µM”.

What about the NMDA-receptor mediated currents ([4]; 100 µM) of the same compound?
The NMDA-receptor mediated currents was “did not affect”.

What about the IC50 ([4]; read-out: IC50 of NMDA receptor block, n = 4, NMDA 0.2 mM, Mg2+-free, 10 µM glycine) of the same compound?
Its IC50 is 540 ± 40 µM.

And the “additivity of outward currents of maximal UDCA (300, 600 µM) and picrotoxin (25 µM)” value [5]?
The value was “not additive”.

What about the IC50 ([5]; roughly estimated, read-out: half-maximal effect on outward shift of baseline current) of the same compound?
Its IC50 is roughly 100 µM.

And the “maximal steady-state GABA current” value [6]?
Its value is 54±2 % of control.

What about the “share of the total bile acid pool” value [7] of the same compound?
The value was 58–69%.
